Assay results published in US8772323B2, “Benzoxazole- and tetrahydrobenzoxazole-substituted pyridazinones as GPR119 agonists” (Boehringer Ingelheim International GmbH, priority 2010, dated 2014).
Where a name gives a salt, the structure may show the parent alone.

Molecular target: human GPR119 (Homo sapiens (Human), UniProt Q8TDV5)
Assay: AlphaScreen cAMP assay in Min-6/hGPR119 cells (GPR119 activation, intracellular cAMP)
Type: cell-based
Details: MIN6 cells stably transfected with human GPR119; 45 minutes' incubation at RT; AlphaScreen cAMP Assay Kit
Outline: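 cAMP quantified by AlphaScreen after 45 min room-temperature compound exposure in HEPES/bicarbonate buffer, pH 7.4, containing 0.5 mM IBMX, 0.1% BSA and 1% DMSO final. Cells were Min-6 stably transfected with human GPR119, seeded 24 h beforehand.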

Sequence of human GPR119 (Q8TDV5 whole entry): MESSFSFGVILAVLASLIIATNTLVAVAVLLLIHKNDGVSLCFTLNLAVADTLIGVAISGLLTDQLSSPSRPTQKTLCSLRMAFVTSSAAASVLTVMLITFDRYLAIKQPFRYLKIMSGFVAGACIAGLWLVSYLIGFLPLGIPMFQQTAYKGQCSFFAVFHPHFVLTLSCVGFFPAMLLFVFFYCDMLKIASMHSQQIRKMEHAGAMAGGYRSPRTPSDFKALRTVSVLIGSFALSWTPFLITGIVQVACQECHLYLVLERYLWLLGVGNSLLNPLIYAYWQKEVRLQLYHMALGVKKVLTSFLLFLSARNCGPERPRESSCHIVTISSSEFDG

EC50 [nM]	Structure (SMILES)
1600	CC1CC(=O)NN=C1c1ccc2nc(-c3cccc(CN)c3)oc2c1 (stereo not shown) [Example 125, 6-{2-[3-(aminomethyl)phenyl]1,3-benzoxazol-6-yl}-5-methyl-2,3,4,5-tetrahydropyridazin-3-one]
260	CC1CC(=O)NN=C1c1ccc2nc(-c3cccc(Cl)c3)oc2c1 (stereo not shown) [Example 88, 6-[2-(3-chloro-phenyl)-benzoxazol-6-yl]-5-methyl-4,5-dihydro-2H-pyridazin-3-one]
319	CCC1CC(=O)NN=C1c1ccc2nc(-c3ccc(O[C@@H]4CCCC[C@H]4N(CC)CC)cc3)oc2c1 (relative stereo) [Example 224, 6-{2-[4-(trans-2-diethylamino-cyclohexyloxy)-phenyl]-benzoxazol-6-yl}-5-ethyl-4,5-dihydro-2H-pyridazin-3-one]
204	CCC1CC(=O)NN=C1c1ccc2nc(-c3ccc(OC(C)CN4CCOCC4)cc3)oc2c1 (stereo not shown) [Example 221, 5-ethyl-6-{2-[4-(1-methyl-2-morpholin-4-yl-ethoxy)-phenyl]-benzoxazol-6-yl}-4,5-dihydro-2H-pyridazin-3-one]
552	CCC1CC(=O)NN=C1c1ccc2nc(-c3ccc(OCCCN(C)C)cc3)oc2c1 (stereo not shown) [Example 62, 6-{2-[4-(3-dimethylamino-propoxy)-phenyl]-benzoxazol-6-yl}-5-ethyl-4,5-dihydro-2H-pyridazin-3-one]
132	CC1CC(=O)NN=C1c1ccc2nc(-c3ccc(Cl)cc3)oc2c1 (stereo not shown) [Example 84, 6-[2-(4-chloro-phenyl)-benzoxazol-6-yl]-5-methyl-4,5-dihydro-2H-pyridazin-3-one]
112	CCC1CC(=O)NN=C1c1ccc2nc(-c3ccc(OCC(=O)OC(C)(C)C)cc3)oc2c1 (stereo not shown) [Example 66, tert-butyl {4-[6-(4-ethyl-6-oxo-1,4,5,6-tetrahydro-pyridazin-3-yl)-benzoxazol-2-yl]-phenoxy}-acetate]
299	CCC1CC(=O)NN=C1c1ccc2nc(-c3ccc(OCCN(CC)CC)cc3)oc2c1 (stereo not shown) [Example 222, 6-{2-[4-(2-diethylamino-ethoxy)-phenyl]-benzoxazol-6-yl}-5-ethyl-4,5-dihydro-2H-pyridazin-3-one]
218	CCC[C@@H]1C(=O)NN=C(c2ccc3nc(-c4ccc(OCCN5CCCCC5)cc4)oc3c2)[C@H]1C (stereo in doubt) [Example 173, trans-5-methyl-6-{2-[4-(3-piperidin-1-yl-ethoxy)-phenyl]-benzoxazol-6-yl}-4-propyl-4,5-dihydro-2H-pyridazin-3-one]
41	CC[C@@H]1CC(=O)NN=C1c1ccc2nc(-c3ccc(N(C)C)cc3)oc2c1 [Example 191, (5R)-6-{2-[4-(dimethylamino)phenyl]-1,3-benzoxazol-6-yl}-5-ethyl-2,3,4,5-tetrahydropyridazin-3-one]
79	CC[C@@H]1CC(=O)NN=C1c1ccc2nc(-c3ccc(OC)cc3)oc2c1 [Example 190, (5R)-5-ethyl-6-[2-(4-methoxyphenyl)-1,3-benzoxazol-6-yl]-2,3,4,5-tetrahydropyridazin-3-one]
1700	Cc1c(C2=NNC(=O)C3CC23)ccc2nc(-c3ccccc3)oc12 (stereo not shown) [Example 6, 5-(7-methyl-2-phenyl-benzoxazol-6-yl)-3,4-diaza-bicyclo[4.1.0]hept-4-en-2-one]
342	CCC1CC(=O)NN=C1c1ccc2nc(-c3ccc(OCC(=O)N4CCCCC4)cc3)oc2c1 (stereo not shown) [Example 61, 5-ethyl-6-{2-[4-(2-oxo-2-piperidin-1-yl-ethoxy)-phenyl]-benzoxazol-6-yl}-4,5-dihydro-2H-pyridazin-3-one]
134	CCC1CC(=O)NN=C1c1ccc2nc(-c3ccc(N4CCOCC4)cc3)oc2c1 (stereo not shown) [Example 177, 5-ethyl-6-[2-(4-morpholin-4-yl-phenyl)-benzoxazol-6-yl]-4,5-dihydro-2H-pyridazin-3-one]
51	CCC1CC(=O)NN=C1c1ccc2nc(-c3ccc(OCC4CCN(C(=O)OC(C)(C)C)CC4)cc3)oc2c1 (stereo not shown) [Example 67, tert-butyl 4-{4-[6-(4-ethyl-6-oxo-1,4,5,6-tetrahydro-pyridazin-3-yl)-benzoxazol-2-yl]-phenoxymethyl}-piperidine-1-carboxylate]
39	CCC[C@H]1C(=O)NN=C(c2ccc3nc(-c4ccccc4)oc3c2)[C@@H]1C [Example 196, (4R,5R)-5-methyl-6-(2-phenyl-1,3-benzoxazol-6-yl)-4-propyl-2,3,4,5-tetrahydropyridazin-3-one]
3910	CCC1CC(=O)NN=C1c1ccc2nc(-c3ccc(OCC(=O)O)cc3)oc2c1 (stereo not shown) [Example 70, 4-[6-(4-ethyl-6-oxo-1,4,5,6-tetrahydro-pyridazin-3-yl)-benzoxazol-2-yl]-phenoxy-acetic acid]
434	CCC1CC(=O)NN=C1c1ccc2nc(-c3ccc(OCCN4CCC5(CCCCC5)CC4)cc3)oc2c1 (stereo not shown) [Example 245, 6-(2-{4-[2-(3-aza-spiro[5.5]undec-3-yl)-ethoxy]-phenyl}-benzoxazol-6-yl)-5-ethyl-4,5-dihydro-2H-pyridazin-3-one]
1560	CC1CC(c2ccc3nc(-c4cccs4)oc3c2)=NNC1=O (stereo not shown) [Example 139, 4-methyl-6-(2-thiophen-2-yl-benzoxazol-6-yl)-4,5-dihydro-2H-pyridazin-3-one]

EC50 [nM]	Structure (SMILES)
46	CCC[C@@H]1C(=O)NN=C(c2ccc3nc(-c4ccc(OCCN5C[C@@H](C)O[C@@H](C)C5)cc4)oc3c2)[C@H]1C [Example 223, Trans-6-(2-{4-[2-(2S,6R-dimethyl-morphoin-4-yl)-ethoxy]-phenyl}-benzoxazol-6-yl)-5-methyl-4-propyl-4,5-dihydro-2H-pyridazin-3-one]
50	CCC1OC(=O)NN=C1N1CCc2nc(-c3ccccc3)oc2C1 (stereo not shown) [Example 205, 6-ethyl-5-(2-phenyl-6,7-dihydro-4H-oxazolo[5,4-c]pyridin-5-yl)-3,6-dihydro-[1,3,4]oxadiazin-2-one]
834	CCCC1CC(c2ccc3nc(-c4ccccc4)oc3c2)=NNC1=O (stereo not shown) [Example 9, 6-(2-phenyl-benzoxazol-6-yl)-4-propyl-4,5-dihydro-2H-pyridazin-3-one]
148	CCC1CC(=O)NN=C1c1ccc2nc(-c3cccc(OCc4ccccc4)c3)oc2c1 (stereo not shown) [Example 35, 6-[2-(3-benzyloxy-phenyl)-benzoxazol-6-yl]-5-ethyl-4,5-dihydro-2H-pyridazin-3-one]
120	CCC1CC(=O)NN=C1c1ccc2nc(-c3ccc(OC)cc3)oc2c1 (stereo not shown) [Example 104, 5-ethyl-6-[2-(4-methoxy-phenyl)-benzoxazol-6-yl]-4,5-dihydro-2H-pyridazin-3-one]
186	CCC1CC(=O)NN=C1c1ccc2nc(-c3ccc(OC[C@@H]4CCCN4C(C)C)cc3)oc2c1 (stereo partly shown) [Example 240, 5-ethyl-6-{2-[4-(1-isopropyl-5-pyrrolidin-2-yl-methoxy)-phenyl]-benzoxazol-6-yl}-4,5-dihydro-2H-pyridazin-3-one]
66	CC[C@@H]1CC(=O)NN=C1c1ccc2nc(-c3ccccc3)oc2c1 [Example 31, (R)-5-ethyl-6-(2-phenyl-benzoxazol-6-yl)-4,5-dihydro-2H-pyridazin-3-one]
7330	CCC1CC(c2ccc3nc(-c4cccs4)oc3c2)=NNC1=O (stereo not shown) [Example 141, 4-ethyl-6-(2-thiophen-2-yl-benzoxazol-6-yl)-4,5-dihydro-2H-pyridazin-3-one]
549	CCC1CC(=O)NN=C1c1ccc2nc(-c3ccc(OC(C)(C)CN4CCCC4)cc3)oc2c1 (stereo not shown) [Example 228, 6-{2-[4-(1,1-dimethyl-2-pyrrolidin-1-yl-ethoxy)-phenyl]-benzoxazol-6-yl}-5-ethyl-4,5-dihydro-2H-pyridazin-3-one]
1810	CCC1CC(=O)NN=C1c1ccc2nc(-c3ccc(OC4CCNCC4)cc3)oc2c1 (stereo not shown) [Example 72, 5-ethyl-6-{2-[4-(piperidin-4-yloxy)-phenyl]-benzoxazol-6-yl}-4,5-dihydro-2H-pyridazin-3-one hydrochloride]
166	C[C@@H]1C(=O)NN=C(c2ccc3nc(-c4ccccc4)oc3c2)[C@H]1C [Example 26, (4S,5S)-4,5-dimethyl-6-(2-phenyl-benzoxazol-6-yl)-4,5-dihydro-2H-pyridazin-3-one]
296	CCC1CC(=O)NN=C1c1ccc2nc(-c3ccc(OC(C)CO)cc3)oc2c1 (stereo not shown) [Example 251, 5-ethyl-6-{2-[4-(2-hydroxy-1-methyl-ethoxy)-phenyl]-benzoxazol-6-yl}-4,5-dihydro-2H-pyridazin-3-one]
3840	CC[C@@H]1C(c2ccc3nc(-c4ccc(OC(C)C)cc4)oc3c2)=NNC(=O)[C@@H]1C (relative stereo) [Example 179, cis-5-ethyl-6-[2-(4-isopropoxy-phenyl)-benzoxazol-6-yl]-4-methyl-4,5-dihydro-2H-pyridazin-3-one]
395	CCC1CC(=O)NN=C1c1ccc2nc(-c3ccc(OCC(C)O)cc3)oc2c1 (stereo not shown) [Example 211, 5-ethyl-6-{2-[4-(2-hydroxy-propoxy)-phenyl]-benzoxazol-6-yl}-4,5-dihydro-2H-pyridazin-3-one]
1100	CC[C@H]1CC(=O)NN=C1c1ccc2nc(-c3ccc(OCC(C)N4CCCCC4)cc3)oc2c1 (stereo partly drawn) [Example 236, 5(S)-ethyl-6-{2-[4-(2-piperidin-1-yl-propoxy)-phenyl]-benzoxazol-6-yl}-4,5-dihydro-2H-pyridazin-3-one]
79	CC[C@H]1C(c2ccc3nc(-c4ccccc4)oc3c2)=NNC(=O)[C@@H]1C [Example 147, (4R,5R)-5-ethyl-4-methyl-6-(2-phenyl-1,3-benzoxazol-6-yl)-2,3,4,5-tetrahydropyridazin-3-one]
300	O=C1NN=C([C@H]2CCc3nc(-c4ccccc4)oc3C2)[C@@H]2C[C@H]12 [Example 133, (1S,6R)-5-((S)-2-phenyl-4,5,6,7-tetrahydro-benzoxazol-6-yl)-3,4-diaza-bicyclo[4.1.0]hept-4-en-2-one]
52	CCC[C@@H]1C(=O)NN=C(c2ccc3nc(-c4ccc(OCc5ccccc5)cc4)oc3c2)[C@H]1C (relative stereo) [Example 200, trans-6-[2-(4-benzoxy-phenyl)-benzoxazol-6-yl]-5-methyl-4-propyl-4,5-dihydro-2H-pyridazin-3-one]
